Laboratory results taken from publication PMC9016803, “Mitochondria-targeted half-sandwich iridium(III)-Cp*-arylimidazophenanthroline complexes as antiproliferative and bioimaging agents against triple negative breast cancer cells MDA-MB-468” (RSC Advances, 2022).

Tests used:
[1] = n-Octanol/water partition coefficient, shake flask method; format: physicochemical
Experimental: Both hydrophilicity and lipophilicity studies were performed to determine the tumour-inhibiting potential of the metal complexes. These complexes were highly soluble in DMSO and moderately soluble in H2O, MeOH, EtOH and CH3CN. […] The lipophilicity of these complexes was determined by performing an n-octanol/water partition coefficient (log Po/w, where Po/w = the octanol/water partition coefficient) study using the shake flask method (Table 1).[24] The experimental log Po/w values of these complexes were determined to be in the range of 0.27–0.34 (Table 1). […] This change in the electrolytic behaviour of the complexes from 1 : 1 to 1 : 2 can be attributed to the dissociation of the Ir–Cl bond and subsequent aquation of the complexes. […]
n-Octanol–water partition coefficient (log P o/w)9
The log Po/w of the iridium complexes were adhering to shake flask method using the previously published procedure. A known amount of each complex (IrL1-IrL5) was suspended in water (pre-saturated with n-octanol) and shaken for 48 h on an orbital shaker.
To allow the phase separation, the solution was centrifuged for 10 min at 3000 rpm. To obtain the partition coefficient, different ratios (0.5: 1, 1: 1, and 2: 1) of the saturated solutions were shaken with pre-saturated n-octanol for 20 min on an orbital shaker and followed the same procedure. Aliquots of the aqueous and octanol layers were pipetted out separately and the absorbances were measured with UV-Vis spectrophotometer using proper dilution. Each set was performed in triplicate, concentration of the substances in each layer was calculated using the respective molar extinction coefficients and the partition coefficient (log P o/w) values were obtained from the ratio.

CT-DNA = test: DNA binding by UV-visible absorption titration; set-up: species or system calf; conditions: for Change in absorbance: on addition of CT-DNA
Experimental: To design effective chemotherapeutic drugs, it is essential to explore the interactions of metal complexes with DNA. […] DNA base pairs such as purine (adenine and guanine) and pyrimidine (cytosine and thymine) analogues are responsible for electronic transitions. Upon the addition of CT-DNA in increasing concentration from 5 μM to 60 μM, we observed a hyperchromic shift in π–π* region and hypochromic shift at the MLCT region resulting in the appearance of an isosbestic point, which indicates the prevalence of […] interaction of the complex with DNA together with the intercalative mode of interaction (Fig. 6).
Electronic absorption spectroscopy was used to study the binding capacity of the complexes with calf-thymus DNA (Ct-DNA) and competitive binding assay as studied using ethidium bromide (EtBr) as quencher by fluorescence spectroscopy.
DNA binding assay was carried out by using complexes IrL5 in Tris-HCl buffer (5 mM Tris-HCl in water, pH 7.4) in aqueous medium. The concentration of Ct-DNA was calculated from its absorbance intensity at 260 nm and its known molar absorption coefficient value of 6600 M-1cm-1. Equal amount of DNA was added in both the sample and reference in cuvettes.
Titration was carried out by increasing concentration of CT-DNA. On the eve of each measurement, sample was equilibrated with CT-DNA for about 5 min and then absorbance of the complex was measured. The intrinsic DNA binding constant (K b) was calculated using the […]
[DNA] = [DNA] + 1 L L (i) […]
Where [DNA] is the concentration of DNA in the base pairs, εa is the apparent extinction coefficient observed for the complex, εf corresponds to the extinction coefficient of the complex in its free form, and εb refers to the extinction coefficient of the complex when fully bound to DNA. The resultant data were plotted using Origin Lab, version 8.5 to obtain the [DNA]/(ε a-εf) vs. [DNA] linear plot. The ratio of the slope to intercept from the linear fit gave the values of the intrinsic binding constants ( Kb).
UV and Fluorescence study […]
φ = φR × I × OD × η ⋯⋯⋯(ii)

BSA = target: T1, BSA (Bos taurus, UniProt P02769); test: BSA binding, tryptophan emission quenching; set-up: species or system bovine
T1 construct: purchased Sigma Aldrich Chemical Limited
T1 sequence (P02769 25-607): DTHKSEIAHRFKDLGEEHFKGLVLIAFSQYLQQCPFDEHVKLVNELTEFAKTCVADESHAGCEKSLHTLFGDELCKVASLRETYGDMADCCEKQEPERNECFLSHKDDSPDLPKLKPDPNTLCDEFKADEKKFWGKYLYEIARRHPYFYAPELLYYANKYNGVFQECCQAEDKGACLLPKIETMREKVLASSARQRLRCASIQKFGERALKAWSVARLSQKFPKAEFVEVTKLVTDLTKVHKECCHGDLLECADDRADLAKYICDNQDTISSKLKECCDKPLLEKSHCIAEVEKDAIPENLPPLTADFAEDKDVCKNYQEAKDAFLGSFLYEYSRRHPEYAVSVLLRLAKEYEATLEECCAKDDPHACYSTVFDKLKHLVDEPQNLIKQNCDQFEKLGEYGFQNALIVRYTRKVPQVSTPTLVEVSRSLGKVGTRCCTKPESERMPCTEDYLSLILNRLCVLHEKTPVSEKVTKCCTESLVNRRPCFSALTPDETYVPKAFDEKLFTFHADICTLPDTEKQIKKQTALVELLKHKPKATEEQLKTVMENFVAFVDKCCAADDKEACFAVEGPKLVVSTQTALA
Experimental: Upon excitation at 295 nm, the emission intensity of BSA at λem = 350 nm decreased gradually on increasing the complex concentration, which confirmed that the interaction between complex IrL1 with BSA had occurred, as observed in Fig. 8. The Stern–Volmer quenching constant of these complexes with BSA (KBSA) was calculated using the Stern–Volmer equation and the corresponding Stern–Volmer plots (Fig. 8, inset). The binding affinity (K) of the complexes was calculated from Scatchard plot analysis (Fig. 8, inset). […]
Kapp × [Complex]50 = kEtBr × [EtBr]⋯⋯⋯(iii) […]
Stern-Volmer equation was followed for quantitative determination of the Stern-Volmer quenching constant (K SV).5 Origin (8.5) software was used to plot the fluorescence data to obtain linear plot of I0/I vs. [complex]. The value of KSV was calculated from the following […]
Where I0 = fluorescence intensity in absence of complex and I = fluorescence intensities in presence of complex of concentration [Q].
We are acquainted with the fact that serum albumin proteins are the main component. […] After each addition, the solutions were shaken slowly for 5 min before recording the fluorescence at a wavelength of 295 nm (λex = 295 nm). A gradual decrease in fluorescence intensity of BSA at λ = 340 nm was observed upon increasing the concentration of complex, which confirmed […]
that the interaction between the complex and BSA was happened. Stern-Volmer equation was employed to quantitatively determine the quenching constant (K BSA). […]
Where I0 is the fluorescence intensity of BSA in absence of complex and I indicates the fluorescence intensity of BSA in presence of complex of concentration [Q], τ0 = lifetime of the tryptophan in BSA found as 1 x 10-8 and kq is the quenching constant. […]
To allow the phase separation, the solution was centrifuged for 10 min at 3000 rpm. […] Aliquots of the aqueous and octanol layers were pipetted out separately and the absorbances were measured with UV-Vis spectrophotometer using proper dilution. […]

log P (n-octanol/water partition coefficient) [1]: 0.27 ± 0.07
K, binding affinity (Scatchard plot) (BSA; BSA): 6.3e+06 M⁻¹
kq, bimolecular quenching constant (BSA; calculated from KSV and τ0 (1 × 10^−8 s)): 5 × 10^12 M^−1 S^−1
KBSA, Stern–Volmer quenching constant with BSA (BSA; excitation 295 nm): 50000 M⁻¹
Substance: [Iridium(III)-Cp*-2-(naphthalen-1-yl)-1H-imidazo[4,5-f][1,10]phenanthroline]PF6 [IrL1]
Δε (% change in hypochromism or hyperchromism) (CT-DNA; λmax 250 nm, hyperchromism): 60%
Change in absorbance (CT-DNA; λmax 250 nm): Hyperchromism
Δε (% change in hypochromism or hyperchromism) (CT-DNA; λmax 305 nm, hypochromism): 25%
Change in absorbance (CT-DNA; λmax 305 nm): Hypochromism
